# Reference: US20230399332A1, “IMIDAZO[1,2-a]PYRAZINE OR PYRAZOLO[1,5-a]PYRIMIDINE DERIVATIVE AND USE THEREOF” (TENCENT TECHNOLOGY (SHENZHEN) COMPANY LIMITED, priority 2022, published 2023)
# Like-named read-outs stand apart in the source and are kept apart here.
# Legend:
# hERG = hERG (Homo sapiens (Human), UniProt Q12809); assay: hERG inhibitory activity, whole cell patch clamp in CHO hERG cells; format: cell-based; conditions: for inhibition at 10 µM: human, CHO cells that express hERG, read-out: hERG inhibitory rate
# Description: This experiment was carried out to test the in vitro inhibitory activity of the compounds of the present disclosure against hERG.
# In this method, whole cell recording was conducted by using a HEKA EPC 10 USB patch clamp amplifier (HEKA Elektronik, Germany). A cover slide with a large number of individual CHO hERG cells on the surface was removed and placed in a recording tank which was treated with continuous perfusion (about 1 ml/min) and loaded into an inverted microscope. Currents of hERG channels of the individual cells were recorded by using a standard whole cell recording method. A fixed voltage of −80 mV was applied to the cells by a voltage clamp. The hERG currents were activated by depolarization at +20 mV for 5 s, and then the currents were changed back at −50 mV for 5 s to remove a passivation effect and observe deactivated tail currents. Potassium ion tail currents observed in the hERG channels were stabilized by continuous perfusion in this step. Then, the cells were treated with a drug of the present disclosure until a stable state was reached. A stable state was considered as being reached when three consecutive superimposed currents were recorded. At this time point, the cells were treated again with an extracellular solvent until the current amplitude was changed back to near the level before administration. Cisapride was used in a control experiment to verify that the mass and response of hERG cells were in a normal state.
# LSD1 = LSD1 (Homo sapiens (Human), UniProt O60341); assay: LSD1 inhibitory activity on an enzyme level, AlphaScreen method; format: biochemical; conditions: in vitro
# Description: This experiment was carried out to test the in vitro inhibitory activity of the compounds of the present disclosure against LSD1.
# Experimental steps and a method: In this experiment, the in vitro inhibitory activity of the compounds of the present disclosure against LSD1 on an enzyme level was tested by using an AlphaScreen method. The experimental steps are described as follows: • a) preparation of a 1× buffer: • preparing a 1× buffer (improved trihydroxymethylaminomethane buffer); • b) continuous dilution of the compounds: • transferring the compounds of the present disclosure to a porous plate by using Echo at a final DMSO concentration of 1%; • c) preparation of an enzyme solution: • preparing an enzyme solution in the 1× buffer; • d) preparation of a substrate solution: • adding polypeptide to the 1× buffer to prepare a substrate solution; • e) transferring 5 μL of the enzyme solution or the 1× buffer to the porous plate; • f) conducting incubation at room temperature for 15 min; • g) adding 5 μL of the substrate solution to each well to induce a reaction; • h) conducting incubation at room temperature for 40 min; • i) preparing a 1× Alphalisa buffer; • j) preparation of a 1× Alphalisa buffer solution of receptors and donors: • adding 15 μL of a receptor and donor solution in dark light environment, and conducting incubation at room temperature for 60 min; • k) reading an endpoint in an EnSpire Alpha mode; and • l) data processing: • calculating an inhibitory value according to an equation 1:
# Inh %=(Max−Signal)/(Max−Min)*100; and equation 1: • calculating an IC50 value by using XL-Fit according to an equation 2:
# Y=Bottom+(Top-Bottom)/(1+(IC50/X)[…]), equation 2: • where Y indicates the inhibitory rate, and X indicates the concentration of a compound.
# [1] = Pharmacokinetics after intravenous injection or oral administration in mice; format: in vivo; conditions: mouse, plasma, CD-1 mice, 5 mg/kg; for AUC(0-t): read-out: Curve area AUC0-t; for half-life: read-out: Half-life T1/2 (converted)
# Description: This experiment was carried out to test pharmacokinetic properties of the compounds of the present disclosure in mice.
# A tested compound was dissolved in a mixture of 10% DMSO, 10% Solutol HS15 and 80% normal saline, and subjected to vortex treatment and ultrasonic treatment to obtain a corresponding concentration of a clarified solution. Then, the clarified solution was filtered with a microporous filter membrane for later use. A resulting tested compound solution was injected intravenously to CD-1 mice with a body weight of 21 to 27 g at a dose of 5 mg/kg. A tested compound was dissolved in a mixture of 10% DMSO, 10% Solutol HS15 and 80% normal saline, and subjected to vortex treatment and ultrasonic treatment to obtain a corresponding concentration of a clarified solution. Then, the clarified solution was filtered with a microporous filter membrane for later use. A resulting tested compound solution was administered orally to CD-1 mice with a body weight of 21 to 27 g at a dose of 5 mg/kg. Whole blood was collected at certain time points, and plasma was prepared. Drug concentration was analyzed by an LC-MS/MS method, and pharmacokinetic parameters were calculated by Phoenix WinNonlin software.
# Sequence of hERG (Q12809 whole entry): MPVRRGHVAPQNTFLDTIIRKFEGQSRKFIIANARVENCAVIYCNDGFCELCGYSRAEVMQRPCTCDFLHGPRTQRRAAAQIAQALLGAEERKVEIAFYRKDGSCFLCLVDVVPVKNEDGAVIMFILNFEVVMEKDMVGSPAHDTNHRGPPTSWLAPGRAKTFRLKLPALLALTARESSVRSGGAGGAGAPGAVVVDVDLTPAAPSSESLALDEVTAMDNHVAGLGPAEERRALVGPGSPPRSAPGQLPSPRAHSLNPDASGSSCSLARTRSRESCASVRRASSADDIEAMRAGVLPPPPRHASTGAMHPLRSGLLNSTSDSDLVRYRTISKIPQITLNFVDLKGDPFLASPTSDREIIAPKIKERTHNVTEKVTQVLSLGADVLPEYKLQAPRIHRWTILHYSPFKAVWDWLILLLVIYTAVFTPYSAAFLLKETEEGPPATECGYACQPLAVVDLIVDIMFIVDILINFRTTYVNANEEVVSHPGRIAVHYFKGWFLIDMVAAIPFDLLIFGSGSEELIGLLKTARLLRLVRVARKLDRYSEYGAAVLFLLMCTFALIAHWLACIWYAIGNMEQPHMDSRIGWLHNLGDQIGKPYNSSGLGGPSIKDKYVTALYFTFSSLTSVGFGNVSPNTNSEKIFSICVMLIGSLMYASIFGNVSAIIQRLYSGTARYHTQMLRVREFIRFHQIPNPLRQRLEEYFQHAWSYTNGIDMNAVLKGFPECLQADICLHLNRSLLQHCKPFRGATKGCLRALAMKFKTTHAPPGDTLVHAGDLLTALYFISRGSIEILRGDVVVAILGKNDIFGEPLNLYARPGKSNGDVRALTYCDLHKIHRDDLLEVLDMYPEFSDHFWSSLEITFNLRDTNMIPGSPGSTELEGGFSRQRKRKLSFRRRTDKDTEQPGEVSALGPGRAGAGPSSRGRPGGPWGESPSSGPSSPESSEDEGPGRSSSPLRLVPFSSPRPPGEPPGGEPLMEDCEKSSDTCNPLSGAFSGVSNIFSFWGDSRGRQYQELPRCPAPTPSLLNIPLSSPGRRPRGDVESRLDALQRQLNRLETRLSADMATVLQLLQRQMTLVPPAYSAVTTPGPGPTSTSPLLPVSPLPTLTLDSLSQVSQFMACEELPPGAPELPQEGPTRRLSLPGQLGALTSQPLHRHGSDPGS
smiles,measurement,setting,value
"CC(C)(O)Cn1nnc2cc(-c3c(-c4ccc(C#N)c(F)c4)nc4c(N5CCC[C@@H](N)C5)nccn34)c(F)cc21 [Compound 12, (R)-4-(8-(3-aminopiperidin-1-yl)-3-(6-fluoro-1-(2-hydroxy-2-methylpropyl)-1H-benzo[d][1,2,3]triazol-5-yl)imidazo[1,2-a]pyrazin-2-yl)-2-fluorobenzonitrile]",inhibition at 10 µM,hERG,27%
same,IC50,LSD1,1.6 nM
"CC(C)(O)Cn1nnc2cc(-c3c(-c4ccc(C#N)c(F)c4)nc4c(N5CCC[C@@H](N)C5)nccn34)c(F)cc21 [Compound 18, (R)-4-(8-(3-aminopiperidin-1-yl)-3-(6-fluoro-1-(2-hydroxy-2-methylpropyl)-1H-benzo[d][1,2,3]triazol-5-yl)imidazo[1,2-a]pyrazin-2-yl)-2-fluorobenzonitrile]",hERG inhibitory rate,hERG; 10 μM,43.72%
"CC(C)(O)Cn1nnc2cc(-c3c(-c4ccc(C#N)c(F)c4)nc4c(N5CCC[C@@H](N)C5)nccn34)ccc21 [Compound 20, (R)-4-(8-(3-aminopiperidin-1-yl)-3-(1-(2-hydroxy-2-methylpropyl)-1H-benzo[d][1,2,3]triazol-5-yl)imidazo[1,2-a]pyrazin-2-yl)-2-fluorobenzonitrile]",inhibition at 10 µM,hERG,26.7%
same,IC50,LSD1,2.6 nM
"CC(C)(O)Cn1nnc2cc(-c3c(-c4ccc(C#N)c(F)c4)nc4c(N5[C@@H]6CC[C@H]5[C@@H](N)C6)nccn34)c(F)cc21 [Compound 27, 4-(8-((1S,2S,4R)-2-amino-7-azabicyclo[2.2.1]heptane-7-yl)-3-(6-fluoro-1-(2-hydroxy-2-methylpropyl)-1H-benzo[d][1,2,3]triazol-5-yl)imidazo[1,2-a]pyrazin-2-yl)-2-fluorobenzonitrile]",IC50,LSD1,1 nM
same,Vd,"[1]; intravenous injection, read-out: Apparent volume of distribution V",5.04 L/kg
same,clearance,"[1]; intravenous injection, read-out: Clearance rate CL",7.25 mL/min/kg
same,AUC(0-t),[1]; intravenous injection,11500 ng·h/mL
same,half-life,[1]; intravenous injection,8.33 h
same,Cmax,"[1]; oral administration, read-out: Blood drug concentration Cmax",648 ng/mL
same,AUC(0-t),[1]; oral administration,6530 ng·h/mL
same,half-life,[1]; oral administration,5.86 h
